This passage reports logP and chromatographic logP results from US8791139B2, “Anthranilic diamide derivatives” (Bayer Cropscience AG, priority 2010, dated 2014).

Where “and” joins values, the source holds several entries; their conditions need not be identical. Equal values may be shown once.

One data set is described as follows: logP by HPLC on reversed-phase columns (C18), EEC Directive 79/831 Annex V.A8. The class given is physicochemical. Particulars: HPLC reversed-phase C18, acidic range pH 2.7; Preparation Examples (intermediates). Here is the method:
The logP values reported in the table above and in the Preparation Examples were determined in accordance with EEC Directive 79/831 Annex V.A8 by HPLC (High Performance Liquid Chromatography) on reversed-phase columns (C18), with the following methods:
The LC-MS determination in the acidic range is carried out at pH 2.7 using the mobile phases 0.1% aqueous formic acid and acetonitrile (contains 0.1% formic acid), linear gradient from 10% acetonitrile to 95% acetonitrile
Calibration was carried out using unbranched alkan-2-ones (having from 3 to 16 carbon atoms) with known logP values (the logP values were determined by the retention times using linear interpolation between two successive alkanones).
The logP is the decadic logarithm of the partition coefficient of the neutral form, usually between octanol and water. A higher logP goes with a more lipophilic compound. For the compound “Methyl 1-(3-chloropyridin-2-yl)-3-{1-hydroxy-2-[5-(trifluoromethyl)-2H-tetrazol-2-yl]ethyl}-1H-pyrazole-5-carboxylate/methyl 1-(3-chloropyridin-2-yl)-3-{1-hydroxy-2-[5-(trifluoromethyl)-1H-tetrazol-1-yl]ethyl}-1H-pyrazole-5-carboxylate [Example No. XII]”, the log partition coefficient (logP) is 2.64 and 2.68. On the same count and under the same terms, under `O=C(Nc1ccc(C(F)(F)F)cc1)c1cc(C(=O)O)n(-c2ncccc2Cl)n1` [Example No. III-8] stands 2.67.

Still in this data set, the particulars now being: pH 2.7, log P.
`Cc1cc(Cl)cc(C(=O)NC2CC2)c1NC(=O)c1cc(CNS(=O)(=O)c2ccccc2Cl)nn1-c1ncccc1Cl` [Example 39]: the chromatographic logP came out at 2.8.

On to `Cc1cc(Cl)cc(C(=O)NC(C)C)c1NC(=O)c1cc(CNS(=O)(=O)c2cccc(Cl)c2)nn1-c1ncccc1Cl` [Example 43], for which the chromatographic logP amounted to 3.25.

In turn, `Cc1cc(Cl)cc(C(=O)NC(C)C)c1NC(=O)c1cc(CNS(=O)(=O)c2ccccc2C(F)(F)F)nn1-c1ncccc1Cl` [Example 45] displayed a chromatographic logP of 3.26.

`Cc1cc(Cl)cc(C(=O)NC(C)C)c1NC(=O)c1cc(CNS(=O)(=O)c2ccccc2Cl)nn1-c1ncccc1Cl` [Example 38]: the chromatographic logP is 3.06. Still for that read-out and setting: to `Cc1cc(C#N)cc(C(=O)NC(C)C)c1NC(=O)c1cc(Nc2cccc(C(F)(F)F)c2)nn1-c1ncccc1Cl` [Example 75] belongs 3.66; to `CNC(=O)c1cc(Br)cc(C)c1NC(=O)c1cc(C(=O)Nc2ccc(C(F)(F)F)cc2)nn1-c1ncccc1Cl` [Example 2], 3.53.

Consider `Cc1cc(Cl)cc(C(=O)NC(C)C)c1NC(=O)c1cc(CNS(=O)(=O)Cc2cccc(C(F)(F)F)c2)nn1-c1ncccc1Cl` [Example 51], for which the chromatographic logP stood at 3.42. `CNC(=O)c1cc(Cl)cc(C)c1NC(=O)c1cc(N2CCN(Cc3ccc(Cl)nc3)C2=O)nn1-c1ncccc1Cl` [Example 28] showed a chromatographic logP of 2.64.

`CNC(=O)c1cc(Cl)cc(C)c1NC(=O)c1cc(C(=O)Nc2ccc(C(F)(F)F)cc2)nn1-c1ncccc1Cl` [Example 5] displayed a chromatographic logP of 3.46. `Cc1cc(Cl)cc(C(=O)NC(C)C)c1NC(=O)c1cc(CNS(=O)(=O)c2ccccc2)nn1-c1ncccc1Cl` [Example 44] gave a chromatographic logP of 2.84.

The data set is the same for the next values; noted with them: reversed-phase HPLC column (C18), pH 2.7, HPLC reversed-phase C18, acidic range pH 2.7, 0.1% aqueous formic acid/acetonitrile; table of compounds of formula (I); read-out: log P.
As for `Cc1cc(C#N)cc(C(=O)NC(C)C)c1NC(=O)c1cc(N2CCN(c3cc(C(F)(F)F)cc(C(F)(F)F)c3)C2=O)nn1-c1ncccc1Cl` [Example 27], the chromatographic logP turned out to be 4.55. Same read-out and setting: under `Cc1cc(Cl)cc(C(=O)NC(C)C)c1NC(=O)c1cc(N2CCN(c3cc(C(F)(F)F)cc(C(F)(F)F)c3)C2=O)nn1-c1ncccc1Cl` [Example 26] stands 4.97; under `Cc1cc(Cl)cc(C(=O)NC(C)C2CC2)c1NC(=O)c1cc(CNS(=O)(=O)c2cc(C(F)(F)F)cc(C(F)(F)F)c2)nn1-c1ncccc1Cl` (centres unmarked) [Example 34], 4.38.

For `Cc1cc(Cl)cc(C(=O)NC(C)C)c1NC(=O)c1cc(CNS(=O)(=O)c2cc(C(F)(F)F)cc(C(F)(F)F)c2)nn1-c1ncccc1Cl` [Example 35], the chromatographic logP worked out at 4.1. For the compound `CNC(=O)c1cc(Cl)cc(C)c1NC(=O)c1cc(CNS(=O)(=O)c2cc(C(F)(F)F)cc(C(F)(F)F)c2)nn1-c1ncccc1Cl` [Example 36], the chromatographic logP was 3.62. Same read-out and setting: under `Cc1cc(Cl)cc(C(=O)NC(C)C)c1NC(=O)c1cc(CNS(=O)(=O)c2c(C(F)(F)F)cccc2C(F)(F)F)nn1-c1ncccc1Cl` [Example 41] stands 3.63; under `Cc1cc(C#N)cc(C(=O)NC2CC2)c1NC(=O)c1cc(CN(Cc2cc(C(F)(F)F)cc(C(F)(F)F)c2)S(C)(=O)=O)nn1-c1ncccc1Cl` [Example 62], 3.64. With `Cc1cc(Cl)cc(C(=O)NC(C)C)c1NC(=O)c1cc(CNS(=O)(=O)c2ccc(C(F)(F)F)cc2C(F)(F)F)nn1-c1ncccc1Cl` [Example 42], the chromatographic logP turned out to be 3.94.

Consider `Cc1cc(Cl)cc(C(=O)NC(C)C)c1NC(=O)c1cc(CNS(=O)(=O)Cc2cc(C(F)(F)F)cc(C(F)(F)F)c2)nn1-c1ncccc1Cl` [Example 53], for which the chromatographic logP was 3.95. Consider `CNC(=O)c1cc(C#N)cc(C)c1NC(=O)c1cc(N2CCN(c3cc(C(F)(F)F)cc(C(F)(F)F)c3)C2=O)nn1-c1ncccc1Cl` [Example 23], for which the chromatographic logP turned out to be 4.08.

Still in this data set, the particulars now being: reversed-phase HPLC column (C18), pH 2.7, HPLC reversed-phase C18, acidic range pH 2.7; Preparation Examples (intermediates); read-out: logP.
For the compound `COC(=O)c1cc([N+](=O)[O-])nn1-c1ncccc1Cl` [Example No. XVIII, Methyl 1-(3-chloropyridin-2-yl)-3-nitro-1H-pyrazole-5-carboxylate], the chromatographic logP came out at 2.18. On to `O=C(Cn1nnc(C(F)(F)F)n1)c1cc(C(=O)O)n(-c2ncccc2Cl)n1` [Example No. III-4, 1-(3-chloropyridin-2-yl)-3-{[5-(trifluoromethyl)-2H-tetrazol-2-yl]acetyl}-1H-pyrazole-5-carboxylic acid], for which the chromatographic logP is 2.25.

On to `CCOC(=O)c1cc(C(=O)C(=O)c2ccc(Cl)cc2Cl)nn1-c1ncccc1Cl` [Example No. VIII, ethyl 1-(3-chloropyridin-2-yl)-3-[(2,4-dichlorophenyl)(oxo)acetyl]-1H-pyrazole-5-carboxylate], for which the chromatographic logP was found to be 4.29. The same measure, in the same setting: to `O=C(C(=O)c1ccc(Cl)cc1Cl)c1cc(C(=O)O)n(-c2ncccc2Cl)n1` [Example No. III-2, 1-(3-chloropyridin-2-yl)-3-[(2,4-dichlorophenyl)(oxo)acetyl]-1H-pyrazole-5-carboxylic acid] belongs 2.78; to `COC(=O)c1cc(C(=O)O)nn1-c1ncccc1Cl` [Example No. VIII-e, 1-(3-chloropyridin-2-yl)-5-(methoxycarbonyl)-1H-pyrazole-3-carboxylic acid], 1.38; to `COC(=O)c1cc(C(=O)Nc2ccc(C(F)(F)F)cc2)nn1-c1ncccc1Cl` [Example No. IX-e, methyl 1-(3-chloropyridin-2-yl)-3-{[4-(trifluoromethyl)phenyl]carbamoyl}-1H-pyrazole-5-carboxylate], 3.54.

Turning to `COC(=O)c1cc(C(=O)c2ccc(C(F)(F)F)nc2)nn1-c1ncccc1Cl` [Example No. VIII-c, methyl 1-(3-chloropyridin-2-yl)-3-{[6-(trifluoromethyl)pyridin-3-yl]carbonyl}-1H-pyrazole-5-carboxylate], the chromatographic logP was determined as 3.33. As for `O=C(c1ccc(C(F)(F)F)nc1)c1cc(C(=O)O)n(-c2ncccc2Cl)n1` [Example No. III-6, 1-(3-chloropyridin-2-yl)-3-{[6-(trifluoromethyl)pyridin-3-yl]carbonyl}-1H-pyrazole-5-carboxylic acid], the chromatographic logP is 2.33. Regarding `O=C(O)c1cc(Nc2ccc(C(F)(F)F)cn2)nn1-c1ncccc1Cl` [Example No. III-10, 1-(3-Chloropyridin-2-yl)-3-{[5-(trifluoromethyl)pyridin-2-yl]amino}-1H-pyrazole-5-carboxylic acid], the chromatographic logP was determined as 2.79. On the same count and under the same terms, under `O=C(O)c1cc(N2CCN(c3cc(C(F)(F)F)cc(C(F)(F)F)c3)C2=O)nn1-c1ncccc1Cl` [Example No. III-5, 3-{3-[3,5-bis(trifluoromethyl)phenyl]-2-oxoimidazolidin-1-yl}-1-(3-chloropyridin-2-yl)-1H-pyrazole-5-carboxylic acid] stands 3.47.
